Results as given in PMC10752971 (Frontiers in Pharmacology, 2023).
Read-outs that look alike come from different tables or passages of the source.

How the values were obtained:
MYLA cells [1] = assay: RNA-Seq time series of marker gene expression in MYLA cells; assay type: cell-based, human
Experimental: The MYLA cells were seeded into a T75 flask and allowed to grow to 95%–100% confluency. […] The cells were harvested at T = 1, 3, 6, 9, 12, 24, and 48 h, pelleted (1,200 rpm, 5 min, 4°C), and snap frozen on dry ice before storage at −80°C.
RNA was extracted from pelleted cells using the GenElute^TM Total RNA Purification Kit (Sigma Aldrich, Poole, United Kingdom) according to the manufacturer’s instructions. RNA concentration and purity were determined using a NanoDrop 1000 Spectrophotometer (Thermo Fisher Scientific, Loughborough, United Kingdom). All RNA samples were stored at −80°C until use.
RNA quality was verified using a Bioanalyzer according to the manufacturer’s instructions (Eukaryote Total RNA Nano, Agilent). Illumina TruSeq RNA libraries were prepared and sequenced using a NextSeq 500 with a high-output 75 bp cycle cartridge (Illumina, Cambridge, United Kingdom) by the University of Warwick Genomic Facility.
bcl2fastq v2.20.0.422 was used for demultiplexing each sample. FastQC v0.11.9 was used to quality control check the demultiplexed FastQC files, and MultiQC v1.9 consolidated the QC reports. Reads were aligned to the human reference genome build GRCh38 release 86 using STAR version 2.7.9a. The number of reads mapped to each genomic feature was calculated with featureCounts v2.0.1. The counts were imported into R Studio and analysed with the DESeq2 package.
Data analysis: TPM data were processed and analysed using R Studio and then plotted using the GraphPad 9 software.
The experiments were technical triplicates of biological triplicate samples taken from seven time points. The data in Figures 8–10 were analysed by two-way ANOVA and post hoc Dunnett’s multiple comparison test comparing treatments to the ethanol vehicle.

MYLA cells [2] = assay: RT-qPCR of OXTR, CALD1 and MYLK expression in MYLA cells; assay type: cell-based, human; details: for OXTR, CALD1, and MYLK expression at 48 h (RT-qPCR): 1 µM PGF2α + 1 µM antagonist vs 1 µM PGF2α; for Expression of OXTR, CALD1, and MYLK (RT-qPCR time series): 1 µM PGF2α + 1 µM antagonist, 1–48 h
FP receptor [3] = biological target: T1, FP receptor (Homo sapiens, UniProt P43088); assay: Antagonist Ca2+ assay: FP antagonists on PGF2α-stimulated Ca2+ transients in MYLA cells; assay type: cell-based; parameters: endogenous in cells; host or cells: MYLA cells (conditionally immortalised human myometrial cells; hTERT + temperature-sensitive SV40 large T)
T1 sequence (P43088 whole entry): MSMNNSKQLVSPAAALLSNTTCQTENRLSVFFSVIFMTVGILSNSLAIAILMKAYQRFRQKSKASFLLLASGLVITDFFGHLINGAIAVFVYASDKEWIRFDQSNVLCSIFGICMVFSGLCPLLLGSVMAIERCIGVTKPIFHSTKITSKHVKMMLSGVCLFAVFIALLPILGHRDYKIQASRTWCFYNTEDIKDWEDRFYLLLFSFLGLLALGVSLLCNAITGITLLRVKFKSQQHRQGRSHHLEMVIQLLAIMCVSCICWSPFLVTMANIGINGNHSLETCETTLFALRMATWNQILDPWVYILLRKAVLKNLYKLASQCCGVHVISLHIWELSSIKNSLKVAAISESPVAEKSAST
Experimental: (§1) MYLA cells were grown to 95%–100% confluency in 3 cm^2 glass-bottom dishes (MatTek Corporation, MA, United States). The cells were serum starved for 24–48 h with 2% DMEM/F12 media and then incubated with 5 μM Calbryte^TM 520 AM (Stratech Scientific Ltd., Ely, United Kingdom) for 60 min at 37°C in a 95%/5% air/CO2-humidified environment, followed by 15 min at room temperature in the dark. […] The plates were then loaded on the stage of an Olympus IX81 inverted microscope and visualised with a 10x objective lens. Temperatures were maintained at 37°C. Calbryte^TM 520 AM was excited at Ex/Em: 490/525 nm. The cells were imaged for 3 min to allow any initial LED-induced Ca^2+ signalling to subside. […] Fluorescence was captured at a rate of one frame per second for 3 min, with agonist/antagonist injections occurring after a 30-s basal period.
(§2) Data analysis: Videos were visualised, and data were analysed using ImageJ, the image analysis software. […] The frequency of Ca^2+ oscillations was calculated as the average number of oscillations over time in seconds (Hz). All data were visualised using the GraphPad Prism 9 software.
(§3) Experiments were repeated on MYLA cells, where N represents the number of biological repeats.

[4] = tested on: induced pulmonary fibrosis mouse models; parameters: method as in Beck et al., 2020; details: ref Beck et al., 2020; cited from earlier work
FP receptor [5] = biological target: T1, FP receptor; assay: [35S]-GTPγS immunoprecipitation assay of Gα-subunit coupling in MYLA cell membranes
Experimental: Tissue preparation: MYLA cells were grown to 95%–100% confluency in a T175 flask, lifted, and pelleted via standard cell culture techniques. The harvested cells were homogenised in ice-cold lysis buffer (composition (mM): HEPES, 20; EDTA, 1; MgCl2, 2; KCl, 10; DTT, 2; pH, 7.4) using a Coleman handheld homogeniser. The homogenates were cleared (1,000×g, 10 min, 4°C) and membranes were collected by centrifugation (16,100×g, 90 min, 4°C). The membranes were resuspended in freezing buffer [composition (mM): HEPES, 10; MgCl2, 1; DTT, 1; pH, 7.4], where the protein concentration was adjusted to 1.5 mg/mL and rapidly frozen in liquid nitrogen. The membranes were stored at −80°C until required.
Radioligand binding assay: 75 μg of membrane was added to 50 μL of assay buffer [composition (mM): HEPES, 10; MgCl2, 10; NaCl, 100; pH, 7.4] containing 1 nM [^35S]-GTPγS (1,250 Ci/mmol) and 10 μM GDP, with or without agonist and antagonists as required, and incubated at 30°C for 2 min. Non-specific binding (NSB) was determined by the inclusion of 10 μM unlabelled GTPγS. Incubation was terminated by the addition of 900 μL of ice-cold assay buffer, and the samples were transferred to ice. The cell membrane was recovered from the reaction mixture by centrifugation (16,100×g, 6 min, 4°C), and the supernatant was removed by aspiration. Membrane pellets were solubilised by the addition of 50 μL of ice-cold solubilisation buffer [composition (mM): Tris-HCl, 100; NaCl, 200; EDTA, 1; IGEPAL CA 630, 1.25% (v/v); 0.2% (w/v) SDS; pH, 7.4] and vortex mixing. […] The beads were washed and pelleted thrice with 500 μL of solubilisation buffer (less SDS) before re-suspension in Pico-Flour^TM scintillation cocktail (Perkin Elmer, Buckinghamshire, United Kingdom) where [^35S]-GTPγS was determined by standard liquid scintillation counting methods.
Data analysis: Specific binding was determined by CPM values and expressed as a % increase over basal (unstimulated), and plotted using the GraphPad Prism 9 software. […]

[6] = tested on: transfected HEK-293 cell lines; parameters: method as in Martos et al., 2016; details: ref Martos et al., 2016; cited from earlier work
FP receptor [7] = biological target: T1, FP receptor; details: MYLA cells
Experimental: as §1, §2, §3

[8] = 300 pM–10 µM antagonist in the presence of 1 µM PGF2α, N = 3, read-out: IC50, effect on AUC
[9] = 300 pM–10 µM antagonist in the presence of 1 µM PGF2α, N = 3, read-out: IC50, effect on Fmax
[10] = 300 pM–10 µM antagonist in the presence of 1 µM PGF2α, N = 3, read-out: IC50, effect on frequency of Ca2+ oscillations
[11] = four-parameter fit, bottom constrained to 0
[12] = normalised to averaged ionomycin Fmax

SMILES	IC50 (FP receptor [3]; [8])	IC50 (FP receptor [3]; [9])	IC50 (FP receptor [3]; [10])	HillSlope ± SD, effect on Fmax (FP receptor [3]; in the presence of 1 µM PGF2α)	HillSlope ± SD, effect on frequency (FP receptor [3]; in the presence of 1 µM PGF2α)	HillSlope ± SD, effect on AUC (FP receptor [3]; in the presence of 1 µM PGF2α)	other results
O=C(N[C@H](c1ccc(F)cc1)[C@H]1CCS(=O)(=O)C1)[C@@H]1CCN1S(=O)(=O)c1ccc(-c2cccnc2)cc1 [Compound N582707, (S)-N-((S)-((R)-1,1-dioxidotetrahydrothiophen-3-yl)(4-fluorophenyl)methyl)-1-((4-(pyridin-3-yl)phenyl)sulfonyl)azetidine-2-carboxamide]	50.4 nM	21.3 nM	22.1 nM	−0.49 ± 0.20	−0.55 ± 0.17		Expression of fibroblast marker genes (DCN, FBLN1, LOXL1, PDGFRA) (MYLA cells [1]; 1 µM PGF2α + 1 µM FP antagonist, up to 48 h): increased the expression; OXTR, CALD1, and MYLK expression at 48 h (RT-qPCR) (MYLA cells [2]): significant decrease; Expression of OXTR, CALD1, and MYLK (RT-qPCR time series) (MYLA cells [2]): reduced; IC50 (FP receptor [3]; in the presence of 1 µM PGF2α, N = 3, read-out: pIC50 ± SD, effect on frequency of Ca2+ oscillations (converted)): 21.9 nM
Cc1c(N2CCCC2)nc2ccc(Br)cc2c1C(=O)NC[C@H](CCC(=O)O)c1ccccc1Cl [BAY-6672]							Effects in induced pulmonary fibrosis mouse models [4]: anti-inflammatory and antifibrotic effects
Cc1c(-c2ccccc2)nc2ccc(Br)cc2c1C(=O)NCC(CCC(=O)O)c1ccccc1Cl (stereo not drawn) [Compound 39/40, 5-(6-bromo-3-methyl-2-phenylquinoline-4-carboxamido)-4-(2-chlorophenyl) pentanoic acid]	90 nM	284 nM	154 nM	−0.54 ± 1.63	−2.00 ± 0.56	−0.98 ± 0.27	PGF2α-stimulated coupling to Gαq/11 (FP receptor [5]; 1 µM compound 39/40 + 1 µM PGF2α, 2 min): reversed; OXTR, CALD1, and MYLK expression at 48 h (RT-qPCR) (MYLA cells [2]): significant decrease; Expression of OXTR, CALD1, and MYLK (RT-qPCR time series) (MYLA cells [2]): reduced
CC(C)Cn1ncc2cc(Cl)cc(Cn3nc(N)c4cc(C(=O)O)ccc43)c21 [Compound 68, 3-amino-1-((5-chloro-1-isobutyl-1H-indazol-7-yl)methyl)-1H-indazole-5-carboxylic acid]	175 nM	194 nM	978 nM	−0.47 ± 0.19	−0.49 ± 0.17	−0.44 ± 0.19	Potency in FLIPR functional assays [6]: potent; IC50 (FP receptor [3]; in the presence of 1 µM PGF2α, N = 3, read-out: pIC50 ± SD, effect on AUC (converted)): 89.1 nM
CCCCC[C@H](O)/C=C/[C@@H]1[C@@H](C/C=C\CCCC(=O)O)[C@@H](O)C[C@H]1O [PGF2α, prostaglandin F2α]							[35S]-GTPγS binding to Gαq/11 (FP receptor [5]; 1 µM PGF2α vs basal, 2 min): significantly increased; Gαs and Gαi coupling (FP receptor [5]; stimulation with PGF2α): no effect; Expression of key genes involved in labour such as OXTR (also IL6, IL11) (MYLA cells [1]; 1 µM PGF2α vs vehicle, 1–48 h): upregulated; Expression of smooth muscle marker genes (ACTA2, CALD1, CNN1, COL4A1, COL4A2, MYLK, MYOCD, TAGLN, TGFB2, TGFB3) (MYLA cells [1]; 1 µM PGF2α, up to 48 h): increased expression; Effect on Fmax, AUC and frequency of intracellular Ca2+ oscillations compared to basal (FP receptor [7]; 300 pM to 10 µM PGF2α): concentration-dependent increase; HillSlope ± SEM, AUC (FP receptor [7]; [11]): 1.06 ± 0.45; HillSlope ± SEM, Fmax (FP receptor [7]; [11]): 0.91 ± 0.28; HillSlope ± SEM, Frequency (FP receptor [7]; [11]): 0.88 ± 0.33; Emax ± SEM, Frequency (FP receptor [7]; frequency of Ca2+ oscillations): 0.01 ± 0.01; Emax ± SEM, AUC (FP receptor [7]; [12]): 1.50 ± 0.14; Emax ± SEM, Fmax (FP receptor [7]; [12]): 0.14 ± 0.01
Cc1c(N2CCCC2)nc2ccc(Br)cc2c1C(=O)NCC(CCC(=O)O)c1ccccc1Cl (stereo not drawn) [Compound 46/47, 5-(6-bromo-3-methyl-2-(pyrrolidin-1-yl)quinoline-4-carboxamido)-4-(2-chlorophenyl)-pentanoic acid]				−1.02 ± 0.40	−0.69 ± 0.30	−1.37 ± 0.68	
O=C(N[C@@H](CCO)c1ccc(F)cc1)[C@@H]1SCCN1S(=O)(=O)c1ccc(-c2ccccc2)cc1 [OBE002, [(S)-3-(biphenyl-4-sulfonyl)-thiazolidine-2-carboxylic acid [(S)-1-(4-fluorophenyl)-3-hydroxy-propyl]-amide]]	180 nM	78.3 nM	1980 nM	−0.38 ± 0.15	−0.36 ± 0.19	−0.41 ± 0.17	pIC50 ± SD, effect on Fmax (FP receptor [3]; in the presence of 1 µM PGF2α, N = 3): 7.11 ± 0.68
